Consider five molecules from ChEMBL document CHEMBL5465560, “Selectivity Literature for EUbOPEN Chemogenomic Library” (2024).

Molecules are shown by their SMILES.

Assay [1] has as its target T1, Tyrosine-protein kinase JAK3 (Homo sapiens) (UniProt P52333).
T1 sequence (whole entry): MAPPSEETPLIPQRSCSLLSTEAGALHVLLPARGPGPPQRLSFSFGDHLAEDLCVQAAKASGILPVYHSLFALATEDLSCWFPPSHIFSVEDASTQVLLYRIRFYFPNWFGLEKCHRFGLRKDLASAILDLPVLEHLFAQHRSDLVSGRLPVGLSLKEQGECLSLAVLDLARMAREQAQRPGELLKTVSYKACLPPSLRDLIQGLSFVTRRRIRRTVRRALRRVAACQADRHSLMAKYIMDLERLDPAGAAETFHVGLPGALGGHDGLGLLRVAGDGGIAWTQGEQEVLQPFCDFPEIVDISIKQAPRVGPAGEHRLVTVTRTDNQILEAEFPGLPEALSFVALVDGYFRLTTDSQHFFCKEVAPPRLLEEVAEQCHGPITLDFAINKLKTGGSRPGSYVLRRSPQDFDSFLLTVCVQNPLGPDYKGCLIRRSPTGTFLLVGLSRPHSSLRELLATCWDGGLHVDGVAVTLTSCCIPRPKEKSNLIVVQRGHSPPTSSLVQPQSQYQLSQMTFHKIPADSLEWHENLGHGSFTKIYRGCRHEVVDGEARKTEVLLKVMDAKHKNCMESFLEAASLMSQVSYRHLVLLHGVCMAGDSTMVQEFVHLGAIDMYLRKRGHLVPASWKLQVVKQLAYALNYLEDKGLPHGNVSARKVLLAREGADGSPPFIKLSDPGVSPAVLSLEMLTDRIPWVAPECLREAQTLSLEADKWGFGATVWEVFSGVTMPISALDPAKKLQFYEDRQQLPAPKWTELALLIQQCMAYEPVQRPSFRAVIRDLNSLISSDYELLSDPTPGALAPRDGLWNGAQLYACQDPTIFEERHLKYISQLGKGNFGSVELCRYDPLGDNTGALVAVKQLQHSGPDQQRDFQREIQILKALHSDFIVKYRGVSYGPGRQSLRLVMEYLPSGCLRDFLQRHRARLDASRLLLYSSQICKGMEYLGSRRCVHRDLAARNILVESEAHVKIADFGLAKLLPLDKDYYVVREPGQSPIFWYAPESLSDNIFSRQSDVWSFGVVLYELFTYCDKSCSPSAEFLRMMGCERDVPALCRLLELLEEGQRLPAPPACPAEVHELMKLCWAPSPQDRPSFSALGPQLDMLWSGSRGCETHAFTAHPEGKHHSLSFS
The experiment in a line: Selectivity interaction (KinomeScan (DiscoverX)) EUB0000229b JAK3. Conditions: at 10 µM.

The target of assay [2] is Casein kinase II subunit alpha' (Homo sapiens) (UniProt P19784). Description: Selectivity interaction (KinomeScan (DiscoverX)) EUB0000655a CSNK2A2. Conditions: at 10 µM.
Assay [3] addresses Death-associated protein kinase 3 (Homo sapiens) (UniProt O43293). Description: Selectivity interaction (KinomeScan (DiscoverX)) EUB0001049a DAPK3. The note with it: at 1 µM.
Assay [4] concerns the target T2, Serine/threonine-protein kinase LATS1 (Homo sapiens) (UniProt O95835).
T2 sequence (whole entry): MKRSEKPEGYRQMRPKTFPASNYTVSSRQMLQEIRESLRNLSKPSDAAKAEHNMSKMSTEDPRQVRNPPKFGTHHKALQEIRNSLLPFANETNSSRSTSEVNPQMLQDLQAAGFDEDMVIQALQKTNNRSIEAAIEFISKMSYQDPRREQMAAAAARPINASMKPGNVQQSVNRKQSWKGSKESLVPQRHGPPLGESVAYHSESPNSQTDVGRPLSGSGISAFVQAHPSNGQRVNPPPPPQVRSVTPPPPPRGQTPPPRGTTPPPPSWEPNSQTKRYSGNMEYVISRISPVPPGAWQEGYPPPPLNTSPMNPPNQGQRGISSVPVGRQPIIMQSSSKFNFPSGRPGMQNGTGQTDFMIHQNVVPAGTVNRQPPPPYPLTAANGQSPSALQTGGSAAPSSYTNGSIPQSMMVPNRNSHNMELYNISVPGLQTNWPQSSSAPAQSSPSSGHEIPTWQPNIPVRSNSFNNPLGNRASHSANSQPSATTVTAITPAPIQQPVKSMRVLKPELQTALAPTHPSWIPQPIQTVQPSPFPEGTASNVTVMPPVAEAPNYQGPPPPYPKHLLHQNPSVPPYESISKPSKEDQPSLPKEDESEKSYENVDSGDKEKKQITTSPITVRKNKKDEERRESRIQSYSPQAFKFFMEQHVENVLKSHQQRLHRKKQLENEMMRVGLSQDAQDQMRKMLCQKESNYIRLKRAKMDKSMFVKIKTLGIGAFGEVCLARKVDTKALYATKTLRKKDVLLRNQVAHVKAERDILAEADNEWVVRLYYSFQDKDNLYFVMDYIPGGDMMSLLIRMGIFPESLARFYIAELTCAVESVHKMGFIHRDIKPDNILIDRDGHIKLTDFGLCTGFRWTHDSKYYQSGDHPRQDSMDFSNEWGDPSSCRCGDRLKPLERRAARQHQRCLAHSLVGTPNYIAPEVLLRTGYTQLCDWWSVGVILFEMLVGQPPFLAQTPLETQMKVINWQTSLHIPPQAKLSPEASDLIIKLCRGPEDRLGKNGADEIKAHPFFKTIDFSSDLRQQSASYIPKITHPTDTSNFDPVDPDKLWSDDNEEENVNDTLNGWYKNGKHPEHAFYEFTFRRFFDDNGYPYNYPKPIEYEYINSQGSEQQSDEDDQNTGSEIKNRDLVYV
Description: Selectivity interaction (KinomeScan (DiscoverX)) EUB0000092b LATS1. Conditions: at 10 µM.

The target in assay [5] is Phosphatidylinositol 4-phosphate 3-kinase C2 domain-containing subunit beta (Homo sapiens) (UniProt O00750). The experiment in a line: Selectivity interaction (KinomeScan (DiscoverX)) EUB0000618a PIK3C2B. Conditions: at 10 µM.
Chain of Phosphatidylinositol 4-phosphate 3-kinase C2 domain-containing subunit beta (Homo sapiens) (O00750 whole entry, the tested form may be a part): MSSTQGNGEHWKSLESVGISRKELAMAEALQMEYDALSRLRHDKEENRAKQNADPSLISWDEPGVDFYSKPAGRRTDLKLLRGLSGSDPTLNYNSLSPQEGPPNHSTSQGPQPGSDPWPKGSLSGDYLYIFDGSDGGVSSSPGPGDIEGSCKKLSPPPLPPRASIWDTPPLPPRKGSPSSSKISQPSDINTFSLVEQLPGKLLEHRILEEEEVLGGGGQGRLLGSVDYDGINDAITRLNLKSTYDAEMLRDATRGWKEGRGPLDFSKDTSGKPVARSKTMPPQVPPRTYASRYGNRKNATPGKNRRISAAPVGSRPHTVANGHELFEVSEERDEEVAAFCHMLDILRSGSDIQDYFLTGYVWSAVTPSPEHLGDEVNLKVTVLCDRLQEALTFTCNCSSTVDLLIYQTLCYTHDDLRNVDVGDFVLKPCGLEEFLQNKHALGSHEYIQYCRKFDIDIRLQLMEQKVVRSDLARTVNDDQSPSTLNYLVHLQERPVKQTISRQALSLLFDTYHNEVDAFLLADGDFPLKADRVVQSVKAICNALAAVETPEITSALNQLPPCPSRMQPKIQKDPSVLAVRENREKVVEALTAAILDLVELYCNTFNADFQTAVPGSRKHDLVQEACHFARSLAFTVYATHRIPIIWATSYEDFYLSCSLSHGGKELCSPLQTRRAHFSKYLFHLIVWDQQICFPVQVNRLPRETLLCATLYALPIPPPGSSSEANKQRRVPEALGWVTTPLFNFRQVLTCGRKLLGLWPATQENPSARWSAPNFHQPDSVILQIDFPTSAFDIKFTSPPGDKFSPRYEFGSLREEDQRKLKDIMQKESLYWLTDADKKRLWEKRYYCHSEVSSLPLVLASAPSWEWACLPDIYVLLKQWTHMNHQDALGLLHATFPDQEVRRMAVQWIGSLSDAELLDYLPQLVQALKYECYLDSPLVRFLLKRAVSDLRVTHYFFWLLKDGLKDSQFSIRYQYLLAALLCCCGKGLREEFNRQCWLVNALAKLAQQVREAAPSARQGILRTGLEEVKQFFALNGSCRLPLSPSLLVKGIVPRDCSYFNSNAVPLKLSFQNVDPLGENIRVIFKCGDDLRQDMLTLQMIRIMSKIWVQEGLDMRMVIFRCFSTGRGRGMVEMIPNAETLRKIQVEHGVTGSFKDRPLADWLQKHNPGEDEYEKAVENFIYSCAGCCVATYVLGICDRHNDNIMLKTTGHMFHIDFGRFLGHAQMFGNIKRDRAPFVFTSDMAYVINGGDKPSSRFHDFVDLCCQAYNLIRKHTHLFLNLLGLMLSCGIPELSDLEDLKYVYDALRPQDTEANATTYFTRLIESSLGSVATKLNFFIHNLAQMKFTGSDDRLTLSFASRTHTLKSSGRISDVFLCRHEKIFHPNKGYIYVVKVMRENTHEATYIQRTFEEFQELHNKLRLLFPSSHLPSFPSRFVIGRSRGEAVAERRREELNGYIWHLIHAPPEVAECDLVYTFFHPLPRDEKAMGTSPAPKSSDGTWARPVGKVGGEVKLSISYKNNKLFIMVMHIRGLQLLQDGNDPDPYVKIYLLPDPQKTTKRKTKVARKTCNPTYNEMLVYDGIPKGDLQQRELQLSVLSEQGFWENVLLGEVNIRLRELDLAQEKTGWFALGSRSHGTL

Chain of Casein kinase II subunit alpha' (Homo sapiens) (P19784 whole entry, looked up): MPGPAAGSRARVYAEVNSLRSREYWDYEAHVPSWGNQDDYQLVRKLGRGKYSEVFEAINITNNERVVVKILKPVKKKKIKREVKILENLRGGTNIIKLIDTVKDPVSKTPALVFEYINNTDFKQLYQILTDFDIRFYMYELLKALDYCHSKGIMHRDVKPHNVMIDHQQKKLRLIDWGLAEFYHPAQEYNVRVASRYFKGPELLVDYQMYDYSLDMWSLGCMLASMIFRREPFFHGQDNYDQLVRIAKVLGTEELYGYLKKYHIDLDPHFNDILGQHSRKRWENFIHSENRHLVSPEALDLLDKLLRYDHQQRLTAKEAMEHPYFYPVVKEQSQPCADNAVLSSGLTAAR
Chain of Death-associated protein kinase 3 (Homo sapiens) (O43293 whole entry, looked up): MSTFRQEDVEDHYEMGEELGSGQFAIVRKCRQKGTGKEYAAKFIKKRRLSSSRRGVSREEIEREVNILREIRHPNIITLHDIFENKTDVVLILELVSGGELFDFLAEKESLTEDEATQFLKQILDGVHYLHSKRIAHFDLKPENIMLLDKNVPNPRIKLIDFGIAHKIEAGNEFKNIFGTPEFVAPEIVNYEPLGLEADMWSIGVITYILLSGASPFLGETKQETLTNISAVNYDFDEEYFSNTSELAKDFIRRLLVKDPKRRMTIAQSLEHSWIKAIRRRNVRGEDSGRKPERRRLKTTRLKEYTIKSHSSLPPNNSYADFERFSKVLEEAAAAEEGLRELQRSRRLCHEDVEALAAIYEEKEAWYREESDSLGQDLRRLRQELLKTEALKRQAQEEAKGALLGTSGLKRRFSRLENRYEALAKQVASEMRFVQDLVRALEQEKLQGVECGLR

Molecule `COc1cc(N(C)c2ccnc3ccc(C(F)(F)F)cc23)cc(OC)c1OC` had a % binding in assay [1] of 99%.
`CN(C)CCOc1ccc(-c2nc(-c3ccncc3)c(-c3ccc4c(c3)CC/C4=N\O)[nH]2)cc1`: the % of control in assay [2] was 74%.
In assay [3], `COc1cc(Nc2nc(C)cc(-c3cnn4nc(OC)ccc34)n2)cc(C(F)(F)F)c1` came in with a % of control of 100%.
With `CCC(=O)N1CCN(c2ccc(-n3c(=O)ccc4cnc5ccc(-c6cnc7ccccc7c6)cc5c43)cc2C(F)(F)F)CC1`, in assay [4], the % of control amounted to 100%.
In assay [5], `O[C@H]1CC[C@H](Nc2ncc3nc(Nc4c(F)cc(F)cc4F)n([C@H]4CCOC4)c3n2)CC1` displayed a % of control of 97%.
